In this assay the test system is HIV. The experiment in a line: Table 1 IC50 of the examples (assay method not given; patent concerns inhibiting HIV replication). The assay is classed as cell-based. The conditions noted are these: Human immunodeficiency virus 1.
Consider `Cc1cc2c(c(-c3cc(F)c4c(c3C)CCCO4)c1[C@H](OC(C)(C)C)C(=O)O)CCN2C(=O)c1ccc(C(F)(F)F)c(F)c1` (atropisomer, axis not shown) [Example 140, (S)-2-(tert-Butoxy)-2-((R)-1-(3-fluoro-4-(trifluoromethyl)benzoyl)-4-(8-fluoro-5-methylchroman-6-yl)-6-methylindolin-5-yl)acetic acid], for which it took 14 nM to reach half-maximal inhibition (IC50). In the case of `Cc1cc(Cl)cc(C(=O)N2CCc3c2cc(C)c([C@H](OC(C)(C)C)C(=O)O)c3-c2cc(F)c3c(c2C)CCCO3)c1` (atropisomer, axis not shown) [Example 141, (S)-2-(tert-Butoxy)-2-((R)-1-(3-chloro-5-methylbenzoyl)-4-(8-fluoro-5-methylchroman-6-yl)-6-methylindolin-5-yl)acetic acid], the IC50 (as a rule, the point on the concentration scale where inhibition reaches its midpoint) came out at 6 nM. In turn, `COc1cc(C(=O)N2CCc3c2cc(C)c([C@H](OC(C)(C)C)C(=O)O)c3-c2cc(F)c3c(c2C)CCCO3)ccc1F` (atropisomer, axis not shown) [Example 142, (S)-2-(tert-Butoxy)-2-((R)-1-(4-fluoro-3-methoxybenzoyl)-4-(8-fluoro-5-methylchroman-6-yl)-6-methylindolin-5-yl)acetic acid] registered an IC50 of 2 nM. For `Cc1cc2c(c(-c3cc(F)c4c(c3C)CCCO4)c1[C@H](OC(C)(C)C)C(=O)O)CCN2C(=O)c1ccc(C(F)(F)F)cc1Cl` (atropisomer, axis not shown) [Example 144, (S)-2-(tert-Butoxy)-2-((R)-1-(2-chloro-4-(trifluoromethyl)benzoyl)-4-(8-fluoro-5-methylchroman-6-yl)-6-methylindolin-5-yl)acetic acid], half-maximal inhibition (IC50) required 26 nM.

`Cc1cc2c(c(-c3cc(F)c4c(c3C)CCCO4)c1[C@H](OC(C)(C)C)C(=O)O)CCN2C(=O)c1cc(Cl)ccc1F` (atropisomer, axis not shown) [Example 145, (S)-2-(tert-Butoxy)-2-((R)-1-(5-chloro-2-fluorobenzoyl)-4-(8-fluoro-5-methylchroman-6-yl)-6-methylindolin-5-yl)acetic acid] had an IC50 of 14 nM. In the case of `Cc1ccc(C(=O)N2CCc3c2cc(C)c([C@H](OC(C)(C)C)C(=O)O)c3-c2cc(F)c3c(c2C)CCCO3)cc1C(F)(F)F` (atropisomer, axis not shown) [Example 146, (S)-2-(tert-Butoxy)-2-((R)-4-(8-fluoro-5-methylchroman-6-yl)-6-methyl-1-(4-methyl-3-(trifluoromethyl)benzoyl)indolin-5-yl)acetic acid] it was 5 nM; in that of `Cc1cc2c(c(-c3cc(F)c4c(c3C)CCCO4)c1[C@H](OC(C)(C)C)C(=O)O)CCN2C(=O)c1cc(Cl)cc(C(F)(F)F)c1` (atropisomer, axis not shown) [Example 147, (S)-2-(tert-Butoxy)-2-((R)-1-(3-chloro-5-(trifluoromethyl)benzoyl)-4-(8-fluoro-5-methylchroman-6-yl)-6-methylindolin-5-yl)acetic acid], 17 nM; in that of `Cc1cc2c(c(-c3cc(F)c4c(c3C)CCCO4)c1[C@H](OC(C)(C)C)C(=O)O)CCN2C(=O)c1ccc(Cl)c(C(F)(F)F)c1` (atropisomer, axis not shown) [Example 148, (S)-2-(tert-Butoxy)-2-((R)-1-(4-chloro-3-(trifluoromethyl)benzoyl)-4-(8-fluoro-5-methylchroman-6-yl)-6-methylindolin-5-yl)acetic acid], 8 nM. In the case of `Cc1ccc(Cl)cc1C(=O)N1CCc2c1cc(C)c([C@H](OC(C)(C)C)C(=O)O)c2-c1cc(F)c2c(c1C)CCCO2` (atropisomer, axis not shown) [Example 149] it was 5 nM; in that of `Cc1cc2c(c(-c3cc(F)c4c(c3C)CCCO4)c1[C@H](OC(C)(C)C)C(=O)O)CCN2C(=O)c1cc(F)ccc1Cl` (atropisomer, axis not shown) [Example 150, (S)-2-(tert-Butoxy)-2-((R)-1-(2-chloro-5-fluorobenzoyl)-4-(8-fluoro-5-methylchroman-6-yl)-6-methylindolin-5-yl)acetic acid], 8 nM; in that of `COc1ccc(C(=O)N2CCc3c2cc(C)c([C@H](OC(C)(C)C)C(=O)O)c3-c2cc(F)c3c(c2C)CCCO3)c(C(F)(F)F)c1` (atropisomer, axis not shown) [Example 152, (S)-2-(tert-Butoxy)-2-((R)-4-(8-fluoro-5-methylchroman-6-yl)-1-(4-methoxy-2-(trifluoromethyl)benzoyl)-6-methylindolin-5-yl)acetic acid], 13 nM. The compound `CNC(=O)c1cccc(C(=O)N2CCc3c2cc(C)c([C@H](OC(C)(C)C)C(=O)O)c3-c2cc(F)c3c(c2C)CCCO3)c1` (atropisomer, axis not shown) [Example 153, (S)-2-(tert-Butoxy)-2-((R)-4-(8-fluoro-5-methylchroman-6-yl)-6-methyl-1-(3-(methylcarbamoyl)benzoyl)indolin-5-yl)acetic acid] yielded an IC50 of 125 nM. Take `Cc1cc2c(c(-c3cc(F)c4c(c3C)CCCO4)c1[C@H](OC(C)(C)C)C(=O)O)CCN2C(=O)c1cc(C(F)(F)F)ccc1Cl` (atropisomer, axis not shown) [Example 154, (S)-2-(tert-Butoxy)-2-((R)-1-(2-chloro-5-(trifluoromethyl)benzoyl)-4-(8-fluoro-5-methylchroman-6-yl)-6-methylindolin-5-yl)acetic acid]: the midpoint of inhibition, the IC50, lay at 52 nM. Take `Cc1cc2c(c(-c3cc(F)c4c(c3C)CCCO4)c1[C@H](OC(C)(C)C)C(=O)O)CCN2C(=O)c1cc(C(F)(F)F)ccc1F` (atropisomer, axis not shown) [Example 155, (S)-2-(tert-Butoxy)-2-((R)-1-(2-fluoro-5-(trifluoromethyl)benzoyl)-4-(8-fluoro-5-methylchroman-6-yl)-6-methylindolin-5-yl)acetic acid]: the IC50 came out at 72 nM. `Cc1cc2c(c(-c3cc(F)c4c(c3C)CCCO4)c1[C@H](OC(C)(C)C)C(=O)O)CCN2C(=O)c1ccc(Cl)cc1C(F)(F)F` (atropisomer, axis not shown) [Example 156, (S)-2-(tert-Butoxy)-2-((R)-1-(4-chloro-2-(trifluoromethyl)benzoyl)-4-(8-fluoro-5-methylchroman-6-yl)-6-methylindolin-5-yl)acetic acid] showed an IC50 of 5 nM.

`COc1ccc(C(=O)N2CCc3c2cc(C)c([C@H](OC(C)(C)C)C(=O)O)c3-c2cc(F)c3c(c2C)CCCO3)cc1C(F)(F)F` (atropisomer, axis not shown) [Example 157, (S)-2-(tert-Butoxy)-2-((R)-4-(8-fluoro-5-methylchroman-6-yl)-1-(4-methoxy-3-(trifluoromethyl)benzoyl)-6-methylindolin-5-yl)acetic acid] returned an IC50 of 6 nM. The compound `COc1cc(C)ccc1C(=O)N1CCc2c1cc(C)c([C@H](OC(C)(C)C)C(=O)O)c2-c1cc(F)c2c(c1C)CCCO2` (atropisomer, axis not shown) [Example 159, (S)-2-(tert-Butoxy)-2-((R)-4-(8-fluoro-5-methylchroman-6-yl)-1-(2-methoxy-4-methylbenzoyl)-6-methylindolin-5-yl)acetic acid] displayed a half-maximal inhibitory concentration (IC50) of 4 nM. Turning to `Cc1cc2c(c(-c3cc(F)c4c(c3C)CCCO4)c1[C@H](OC(C)(C)C)C(=O)O)CCN2C(=O)c1cccc(C(F)(F)F)c1F` (atropisomer, axis not shown) [Example 160, (S)-2-(tert-Butoxy)-2-((R)-1-(2-fluoro-3-(trifluoromethyl)benzoyl)-4-(8-fluoro-5-methylchroman-6-yl)-6-methylindolin-5-yl)acetic acid], inhibition was half-maximal at 14 nM (IC50). In the case of `Cc1cc2c(c(-c3cc(F)c4c(c3C)CCCO4)c1[C@H](OC(C)(C)C)C(=O)O)CCN2C(=O)C1CCC1` (atropisomer, axis not shown) [Example 161, (S)-2-(tert-Butoxy)-2-((R)-1-(cyclobutanecarbonyl)-4-(8-fluoro-5-methylchroman-6-yl)-6-methylindolin-5-yl)acetic acid], it took 81 nM to reach half-maximal inhibition (IC50). The value for `COc1cccc(C(=O)N2CCc3c2cc(C)c([C@H](OC(C)(C)C)C(=O)O)c3-c2cc(F)c3c(c2C)CCCO3)c1` (atropisomer, axis not shown) [Example 162, (S)-2-(tert-Butoxy)-2-((R)-4-(8-fluoro-5-methylchroman-6-yl)-1-(3-methoxybenzoyl)-6-methylindolin-5-yl)acetic acid] was 7 nM; that for `COc1cc(C(F)(F)F)ccc1C(=O)N1CCc2c1cc(C)c([C@H](OC(C)(C)C)C(=O)O)c2-c1cc(F)c2c(c1C)CCCO2` (atropisomer, axis not shown) [Example 163, (S)-2-(tert-Butoxy)-2-((R)-4-(8-fluoro-5-methylchroman-6-yl)-1-(2-methoxy-4-(trifluoromethyl)benzoyl)-6-methylindolin-5-yl)acetic acid] was 9 nM. For `Cc1cc2c(c(-c3cc(F)c4c(c3C)CCCO4)c1[C@H](OC(C)(C)C)C(=O)O)CCN2C(=O)c1cccc(C(=O)N2CCCCC2)c1` (atropisomer, axis not shown) [Example 164, (S)-2-(tert-Butoxy)-2-((R)-4-(8-fluoro-5-methylchroman-6-yl)-6-methyl-1-(3-(piperidine-1-carbonyl)benzoyl)indolin-5-yl)acetic acid], half-maximal inhibition (IC50) was put at 176 nM. The value for `Cc1ccc(Cl)c(C(=O)N2CCc3c2cc(C)c([C@H](OC(C)(C)C)C(=O)O)c3-c2cc(F)c3c(c2C)CCCO3)c1` (atropisomer, axis not shown) [Example 165, (S)-2-(tert-Butoxy)-2-((R)-1-(2-chloro-5-methylbenzoyl)-4-(8-fluoro-5-methylchroman-6-yl)-6-methylindolin-5-yl)acetic acid] was 6 nM.

As to `Cc1cc2c(c(-c3cc(F)c4c(c3C)CCCO4)c1[C@H](OC(C)(C)C)C(=O)O)CCN2C(=O)c1cccc2c1OCCC2` (atropisomer, axis not shown) [Example 166, (S)-2-(tert-butoxy)-2-((R)-1-(chromane-8-carbonyl)-4-(8-fluoro-5-methylchroman-6-yl)-6-methylindolin-5-yl)acetic acid], half-maximal inhibition (IC50) was put at 4 nM.

The values above are taken from US20190284136A1, “INDOLINE DERIVATIVES” (ViiV HEALTHCARE UK LIMITED, priority 2016, published 2019).
